Experimental findings from patent US10689378B2, “Triazolopyridine compounds and uses thereof” (Novartis AG, priority 2016, dated 2020) are described below.

Like-named read-outs stand apart in the source and are kept apart here.

Experiment [1] concerns H3K27 methylation in G401 cell. Briefly: ELISA (H3K27 methylation) assay in G401 cells. It counts as cell-based, human. To be noted: Homo sapiens. In a few lines:
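IC50 from dose-response fit of percent inhibition relative to DMSO, using H3K27me3/me2 ELISA signal (ECL) normalized to histone H3. Histones HCl-extracted after 48 h compound exposure of G401 cells at up to 20 μM, 8- or 12-point 3-fold series.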
On the technique in general: In an ELISA, binding on a coated surface is turned into a signal by an enzyme label.

For experiment [2], the target named is wild type PRC2 (wtPRC2) complex (Homo sapiens, UniProt O75530). Briefly: EED LC-MS assay (SAH production by PRC2). It counts as biochemical. Summed up: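 LC-MS/MS readout of SAH (d4-SAH standard) after TFA quench gives PRC2 activity, normalized to controls and fitted to dose-response for IC50. Reaction: 12 nM EZH2/SUZ12/EED/Rbap48/AEBP complex, 1 μM SAM, 1.5 μM H3[21-44] peptide, 120 min rt, 20 min compound preincubation.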
wild type PRC2 (wtPRC2) complex, sequence (O75530 whole entry): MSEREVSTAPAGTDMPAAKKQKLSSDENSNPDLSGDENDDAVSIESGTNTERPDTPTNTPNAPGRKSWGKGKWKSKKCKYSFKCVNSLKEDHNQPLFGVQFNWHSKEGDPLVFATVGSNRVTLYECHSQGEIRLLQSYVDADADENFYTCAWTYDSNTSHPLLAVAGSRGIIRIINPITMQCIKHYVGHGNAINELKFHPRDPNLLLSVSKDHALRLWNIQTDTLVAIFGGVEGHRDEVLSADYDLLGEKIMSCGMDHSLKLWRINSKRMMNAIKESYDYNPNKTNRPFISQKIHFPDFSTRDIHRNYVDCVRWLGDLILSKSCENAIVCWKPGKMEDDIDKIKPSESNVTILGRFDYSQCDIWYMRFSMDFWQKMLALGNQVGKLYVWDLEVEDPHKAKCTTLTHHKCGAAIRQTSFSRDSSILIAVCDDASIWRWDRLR
wild type PRC2 (wtPRC2) complex, sequence (Q15910 whole entry partner): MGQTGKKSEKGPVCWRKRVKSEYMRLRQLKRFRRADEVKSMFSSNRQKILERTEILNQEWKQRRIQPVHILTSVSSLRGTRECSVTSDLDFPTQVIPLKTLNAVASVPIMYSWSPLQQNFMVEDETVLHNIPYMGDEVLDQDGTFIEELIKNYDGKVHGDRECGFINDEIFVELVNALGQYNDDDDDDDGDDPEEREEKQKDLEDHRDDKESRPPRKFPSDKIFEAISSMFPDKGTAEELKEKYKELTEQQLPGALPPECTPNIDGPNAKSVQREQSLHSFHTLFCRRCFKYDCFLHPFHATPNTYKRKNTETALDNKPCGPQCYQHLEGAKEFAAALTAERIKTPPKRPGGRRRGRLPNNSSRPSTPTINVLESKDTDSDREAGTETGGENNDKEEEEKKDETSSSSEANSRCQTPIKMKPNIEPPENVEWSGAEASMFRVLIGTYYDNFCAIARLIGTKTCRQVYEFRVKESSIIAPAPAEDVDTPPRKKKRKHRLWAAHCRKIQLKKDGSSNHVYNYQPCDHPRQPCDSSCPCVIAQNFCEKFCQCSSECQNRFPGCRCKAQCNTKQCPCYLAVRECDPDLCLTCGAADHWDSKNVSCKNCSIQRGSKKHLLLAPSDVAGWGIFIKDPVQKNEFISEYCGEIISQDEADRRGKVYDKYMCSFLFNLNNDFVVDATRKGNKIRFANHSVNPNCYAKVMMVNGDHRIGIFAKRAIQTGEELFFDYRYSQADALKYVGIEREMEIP
wild type PRC2 (wtPRC2) complex, sequence (Q15022 whole entry partner): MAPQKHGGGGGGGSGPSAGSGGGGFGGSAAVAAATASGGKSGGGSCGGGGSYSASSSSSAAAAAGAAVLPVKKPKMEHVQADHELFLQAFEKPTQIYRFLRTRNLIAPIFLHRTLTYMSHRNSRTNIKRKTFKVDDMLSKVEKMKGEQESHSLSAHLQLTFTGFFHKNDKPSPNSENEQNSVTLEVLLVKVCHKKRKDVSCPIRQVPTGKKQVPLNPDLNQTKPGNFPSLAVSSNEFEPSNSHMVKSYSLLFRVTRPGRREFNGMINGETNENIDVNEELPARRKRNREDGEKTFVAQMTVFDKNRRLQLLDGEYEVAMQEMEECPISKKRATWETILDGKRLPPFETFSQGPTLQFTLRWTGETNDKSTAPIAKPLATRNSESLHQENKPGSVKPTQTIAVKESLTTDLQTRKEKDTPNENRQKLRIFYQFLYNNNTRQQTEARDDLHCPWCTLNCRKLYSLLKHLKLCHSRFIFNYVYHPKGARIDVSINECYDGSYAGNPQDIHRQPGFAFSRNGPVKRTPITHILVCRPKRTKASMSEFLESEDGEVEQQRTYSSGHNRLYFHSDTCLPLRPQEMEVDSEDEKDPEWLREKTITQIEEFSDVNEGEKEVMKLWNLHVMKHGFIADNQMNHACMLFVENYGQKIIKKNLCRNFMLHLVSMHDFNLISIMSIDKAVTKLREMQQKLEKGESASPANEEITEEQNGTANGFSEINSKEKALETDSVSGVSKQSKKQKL
wild type PRC2 (wtPRC2) complex, sequence (Q09028 whole entry partner): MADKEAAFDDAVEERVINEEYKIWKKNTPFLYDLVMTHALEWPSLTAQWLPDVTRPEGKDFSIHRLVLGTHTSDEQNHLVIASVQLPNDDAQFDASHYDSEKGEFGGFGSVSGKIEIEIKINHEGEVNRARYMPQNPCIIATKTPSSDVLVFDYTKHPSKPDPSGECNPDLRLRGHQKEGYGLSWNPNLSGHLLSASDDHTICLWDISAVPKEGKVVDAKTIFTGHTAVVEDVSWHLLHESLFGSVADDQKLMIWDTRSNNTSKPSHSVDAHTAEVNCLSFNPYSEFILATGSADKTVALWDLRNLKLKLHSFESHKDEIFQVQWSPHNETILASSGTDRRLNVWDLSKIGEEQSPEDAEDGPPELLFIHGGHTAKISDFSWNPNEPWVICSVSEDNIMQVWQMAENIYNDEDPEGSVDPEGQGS
wild type PRC2 (wtPRC2) complex, sequence (Q6ZN18 whole entry partner): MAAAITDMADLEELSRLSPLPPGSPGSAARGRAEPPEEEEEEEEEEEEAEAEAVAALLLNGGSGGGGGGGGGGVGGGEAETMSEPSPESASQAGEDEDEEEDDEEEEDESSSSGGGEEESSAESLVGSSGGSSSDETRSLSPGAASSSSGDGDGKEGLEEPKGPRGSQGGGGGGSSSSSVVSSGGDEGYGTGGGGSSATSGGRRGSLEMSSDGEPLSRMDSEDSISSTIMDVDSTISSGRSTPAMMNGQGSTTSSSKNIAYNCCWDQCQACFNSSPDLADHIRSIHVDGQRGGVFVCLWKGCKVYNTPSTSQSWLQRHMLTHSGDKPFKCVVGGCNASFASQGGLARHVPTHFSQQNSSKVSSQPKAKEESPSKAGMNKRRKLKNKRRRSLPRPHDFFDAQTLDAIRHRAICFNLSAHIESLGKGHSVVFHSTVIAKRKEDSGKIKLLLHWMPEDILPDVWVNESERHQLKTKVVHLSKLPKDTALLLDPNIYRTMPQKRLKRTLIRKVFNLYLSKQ

The target in another experiment is T1, EED (1-441)-His protein (Homo sapiens, UniProt O75530).
T1 construct: 30 nM EED (1-441)-His protein
T1 sequence (O75530 whole entry): as the sequence (O75530 whole entry) above
Briefly: EED-H3K27Me3 peptide competition binding assay by AlphaScreen. In a few lines: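 Serially diluted compound (12 points, 3-fold) incubated 20 min with 30 nM EED(1-441)-His and 15 nM biotin-H3K27Me3(19-33) peptide in 25 mM HEPES pH 8, 0.02% Tween-20, 0.5% BSA. Ni-chelate acceptor/streptavidin donor beads (10 μg/mL each) added, 1 h rt dark; 615 nm emission normalized to controls, dose-response fit for IC50.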

Setting [3] is: G-401, read-out: (c) IC50, ELISA Qualified.
Setting [4] is: read-out: (b) IC50, EED LC-MS Qualified.
[5] abbreviates: read-out: (a) IC50, EED Alphascreen binding Qualified.
[6] abbreviates: G-401, H3K27 methylation ELISA, read-out: (c) IC50 ELISA Qualified.
The mark [7] stands for this setting: PRC2 LC-MS assay, read-out: (b) IC50 EED LC-MS Qualified.
Where [8] appears, read: EED-H3K27Me3 peptide competition, AlphaScreen, read-out: (a) IC50 EED Alphascreen binding Qualified.

As for `CCN1CCN(c2ccc(-c3ccc(NCc4ccccc4OC)n4cnnc34)cc2)CC1` [Example 152, 8-(4-(4-ethylpiperazin-1-yl)phenyl)-N-(2-methoxybenzyl)-[1,2,4]triazolo[4,3-a] pyridin-5-amine], the IC50 came to 101 nM in experiment [1] (setting [3]), 207 nM in experiment [2] (setting [4]) and 65.9 nM on EED (1-441)-His protein (setting [5]).

Take `COc1cccc(F)c1CNc1ccc(-c2ccc(N(C)S(C)(=O)=O)cc2)c2nncn12` [Example 154, N-(4-(5-((2-fluoro-6-methoxybenzyl)amino)-[1,2,4]triazolo[4,3-a]pyridin-8-yl)phenyl)-N-methyl methanesulfonamide]: the results for the IC50 (in experiment [1] (setting [3]); in experiment [2] (setting [4]); at EED (1-441)-His protein (setting [5])) were 4.9 nM, 83.4 nM and 4.5 nM, respectively.

For the compound `COc1cccc(F)c1CNc1ccc(-c2ccc(OCCO)cc2)c2nncn12` [Example 157, 2-(4-(5-((2-fluoro-6-methoxybenzyl)amino)-[1,2,4]triazolo[4,3-a]pyridin-8-yl)phenoxy)ethanol], the IC50 in experiment [1] (setting [3]) amounted to 43.1 nM; in experiment [2] (setting [4]), 152 nM; on EED (1-441)-His protein (setting [5]) it was 40.4 nM.

Turning to `COc1cccc(F)c1CNc1ccc(-c2cncc(F)c2)c2nncn12` [Example 158, N-(2-fluoro-6-methoxybenzyl)-8-(5-fluoropyridin-3-yl)-[1,2,4]triazolo[4,3-a] pyridin-5-amine], the IC50 in experiment [1] (setting [3]) was 19.6 nM; in experiment [2] (setting [4]), 38.9 nM; at EED (1-441)-His protein (setting [5]), 13.8 nM.

With `COc1cccc(F)c1CNc1ccc(-c2ccc(F)nc2)c2nncn12` [Example 159, N-(2-fluoro-6-methoxybenzyl)-8-(6-fluoropyridin-3-yl)-[1,2,4]triazolo[4,3-a] pyridin-5-amine], the IC50 is 41 nM in experiment [1] (setting [3]), 102 nM in experiment [2] (setting [4]) and 49 nM on EED (1-441)-His protein (setting [5]).

In the case of `COc1cccc(F)c1CNc1ccc(-c2cnc(S(C)(=O)=O)c(C)c2)c2nncn12` [Example 160, N-(2-fluoro-6-methoxybenzyl)-8-(5-methyl-6-(methylsulfonyl)pyridin-3-yl)-[1,2,4]triazolo[4,3-a] pyridin-5-amine], the half-maximal inhibitory concentration (IC50) was determined as 14.8 nM in experiment [1] (setting [3]), 351 nM in experiment [2] (setting [4]) and 15.7 nM on EED (1-441)-His protein (setting [5]).

`COc1cccc(F)c1CNc1ccc(-c2cnc(C)nc2)c2nncn12` [Example 161, N-(2-fluoro-6-methoxybenzyl)-8-(2-methylpyrimidin-5-yl)-[1,2,4] triazolo[4,3-a]pyridin-5-amine]: the values for the IC50 (in experiment [1] (setting [3]); in experiment [2] (setting [4]); on EED (1-441)-His protein (setting [5])) were 26.1 nM, 90.1 nM and 48.7 nM, respectively.

Regarding `COc1cc(F)cc(F)c1CNc1ccc(-c2ccc(CN(C)C)cc2)c2nncn12` [Example 162, N-(2,4-difluoro-6-methoxybenzyl)-8-(4-((dimethylamino)methyl)phenyl)-[1,2,4]triazolo[4,3-a]pyridin-5-amine], the IC50 came out at 14.3 nM in experiment [1] (setting [3]), 77.5 nM in experiment [2] (setting [4]) and 16.6 nM on EED (1-441)-His protein (setting [5]).

Regarding `COc1cccc(F)c1CNc1ccc(-c2ccc(N(C)S(C)(=O)=O)nc2)c2nncn12` [Example 163, N-(5-(5-((2-fluoro-6-methoxybenzyl)amino)-[1,2,4]triazolo[4,3-a]pyridin-8-yl)pyridin-2-yl)-N-methylmethanesulfonamide], the IC50 in experiment [1] (setting [3]) came to 10.7 nM; in experiment [2] (setting [4]), 50.5 nM; on EED (1-441)-His protein (setting [5]), 16.6 nM.

As to `COc1cccc(F)c1CNc1ccc(-c2ccc(C)nc2)c2nncn12` [Example 164, N-(2-fluoro-6-methoxybenzyl)-8-(6-methylpyridin-3-yl)-[1,2,4]triazolo[4,3-a]pyridin-5-amine], the IC50 stood at 36 nM in experiment [1] (setting [3]), 120 nM in experiment [2] (setting [4]) and 33.2 nM at EED (1-441)-His protein (setting [5]).

Take `COc1cccc(F)c1CNc1ccc(-c2cncc(C)c2)c2nncn12` [Example 165, N-(2-fluoro-6-methoxybenzyl)-8-(5-methylpyridin-3-yl)-[1,2,4]triazolo[4,3-a]pyridin-5-amine]: the IC50 in experiment [1] (setting [3]) was 14 nM; in experiment [2] (setting [4]), 38 nM; at EED (1-441)-His protein (setting [5]), 15.9 nM.

With `COc1cccc(F)c1CNc1ccc(-c2cccnc2F)c2nncn12` [Example 166, N-(2-fluoro-6-methoxybenzyl)-8-(2-fluoropyridin-3-yl)-[1,2,4]triazolo[4,3-a]pyridin-5-amine], the IC50 in experiment [1] (setting [3]) amounted to 33.3 nM; in experiment [2] (setting [4]), 20.4 nM; at EED (1-441)-His protein (setting [5]), 25.2 nM.

For the compound `COc1cccc(F)c1CNc1ccc(-c2cncc(N3CCCC3=O)c2)c2nncn12` [Example 167, 1-(5-(5-((2-fluoro-6-methoxybenzyl)amino)-[1,2,4]triazolo[4,3-a]pyridin-8-yl)pyridin-3-yl)pyrrolidin-2-one], the IC50 was determined as 10.3 nM in experiment [1] (setting [3]), 679 nM in experiment [2] (setting [4]) and 13.4 nM on EED (1-441)-His protein (setting [5]).

For `COc1ccccc1CNc1ccc(-c2ccc(N3CC(C)N(C)CC3C)nc2)c2nncn12` (stereo not drawn) [Example 168, N-(2-methoxybenzyl)-8-(6-(2,4,5-trimethylpiperazin-1-yl)pyridin-3-yl)-[1,2,4] triazolo[4,3-a]pyridin-5-amine], the IC50 in experiment [1] (setting [3]) was found to be 105 nM; in experiment [2] (setting [4]) it was 168 nM; on EED (1-441)-His protein (setting [5]), 50.5 nM.

On to `COc1cccc(F)c1CNc1ccc(-c2ccc(OCCS(C)(=O)=O)cc2)c2nncn12` [Example 169, N-(2-fluoro-6-methoxybenzyl)-8-(4-(2-(methylsulfonyl)ethoxy)phenyl)-[1,2,4]triazolo[4,3-a] pyridin-5-amine], for which the IC50 is 105 nM in experiment [1] (setting [3]), 305 nM in experiment [2] (setting [4]) and 84.5 nM on EED (1-441)-His protein (setting [5]).

Regarding `COc1cccc(F)c1CNc1ccc(-c2c(C)nn(CCO)c2C)c2nncn12` [Example 170, 2-(4-(5-((2-fluoro-6-methoxybenzyl)amino)-[1,2,4]triazolo[4,3-a]pyridin-8-yl)-3,5-dimethyl-1H-pyrazol-1-yl)ethanol], the IC50 in experiment [1] (setting [3]) was 18.6 nM; in experiment [2] (setting [4]) it was 67.2 nM; on EED (1-441)-His protein (setting [5]), 25.8 nM.

For the compound `COc1cccc(F)c1CNc1ccc(-c2ccc(N3CCOCC3)nc2)c2nncn12` [Example 172, N-(2-fluoro-6-methoxybenzyl)-8-(6-morpholinopyridin-3-yl)-[1,2,4]triazolo [4,3-a]pyridin-5-amine], the IC50 in experiment [1] (setting [6]) was 111 nM; in experiment [2] (setting [7]) it was 162 nM; at EED (1-441)-His protein (setting [8]), 56.4 nM.

On to `COc1ccc(-c2ccc(NCc3c(F)cccc3OC)n3cnnc23)cn1` [Example 173, N-(2-fluoro-6-methoxybenzyl)-8-(6-methoxypyridin-3-yl)-[1,2,4]triazolo [4,3-a]pyridin-5-amine], for which the IC50 came out at 40.3 nM in experiment [1] (setting [6]), 123 nM in experiment [2] (setting [7]) and 36.3 nM on EED (1-441)-His protein (setting [8]).

Take `COc1cccc(F)c1CNc1ccc(-c2ccc(N(C)C)nc2)c2nncn12` [Example 174, 8-(6-(dimethylamino)pyridin-3-yl)-N-(2-fluoro-6-methoxybenzyl)-[1,2,4]triazolo[4,3-a] pyridin-5-amine]: the results for the IC50 (in experiment [1] (setting [6]); in experiment [2] (setting [7]); on EED (1-441)-His protein (setting [8])) were 76.7 nM, 136 nM and 47.2 nM, respectively.

Take `COc1cccc(F)c1CNc1ccc(-c2ccnc(CCO)c2)c2nncn12` [Example 175, 2-(4-(5-((2-fluoro-6-methoxybenzyl)amino)-[1,2,4]triazolo[4,3-a]pyridin-8-yl)pyridin-2-yl)ethanol]: the figures for the IC50 (in experiment [1] (setting [6]); in experiment [2] (setting [7]); on EED (1-441)-His protein (setting [8])) were 23.9 nM, 148 nM and 35.9 nM, respectively.

As to `COc1cccc(F)c1CNc1ccc(-c2cccnc2OC)c2nncn12` [Example 176, N-(2-fluoro-6-methoxybenzyl)-8-(2-methoxypyridin-3-yl)-[1,2,4]triazolo [4,3-a]pyridin-5-amine], the half-inhibitory concentration (IC50) in experiment [1] (setting [6]) worked out at 58.6 nM; in experiment [2] (setting [7]), 176 nM; at EED (1-441)-His protein (setting [8]), 32.9 nM.

Consider `COc1cccc(F)c1CNc1ccc(-c2ccc(S(C)(=O)=O)cc2F)c2nncn12` [Example 177, 8-(2-fluoro-4-(methylsulfonyl)phenyl)-N-(2-fluoro-6-methoxybenzyl)-[1,2,4]triazolo[4,3-a]pyridin-5-amine], for which the IC50 came to 12.3 nM in experiment [1] (setting [6]), 32.3 nM in experiment [2] (setting [7]) and 15.8 nM on EED (1-441)-His protein (setting [8]).

For `COc1cccc(F)c1CNc1ccc(-c2ccc(C(=O)N(C)C)cc2F)c2nncn12` [Example 178, 3-fluoro-4-(5-((2-fluoro-6-methoxybenzyl)amino)-[1,2,4]triazolo[4,3-a]pyridin-8-yl)-N,N-dimethyl benzamide], the IC50 turned out to be 6.5 nM in experiment [1] (setting [6]), 18.8 nM in experiment [2] (setting [7]) and 6.5 nM on EED (1-441)-His protein (setting [8]).

For `COc1cccc(F)c1CNc1ccc(-c2ccc(S(=O)(=O)C3CCNCC3)nc2)c2nncn12` [Example 179, N-(2-fluoro-6-methoxybenzyl)-8-(6-(piperidin-4-ylsulfonyl)pyridin-3-yl)-[1,2,4]triazolo[4,3-a]pyridin-5-amine], the IC50 turned out to be 13.2 nM in experiment [1] (setting [6]), 174 nM in experiment [2] (setting [7]) and 24.8 nM on EED (1-441)-His protein (setting [8]).

The term IC50 denotes the concentration that inhibits the measured activity by half.
